Laboratory results: ChEMBL document CHEMBL1150990, “Studies of the inactivation of general acyl-coa dehydrogenase by (1R)- and (1S)-(methylenecyclopropyl)acetyl-coa” (Bioorg Med Chem Lett, 1992)

Columns and labels:
[1] = Inactivation of general acyl-CoA dehydrogenase by the compound was determined and expressed as kinact
[2] = Partition ratio of the inactivation of general acyl-CoA dehydrogenase by the compound was determined

Row | SMILES | K inact [1] | Ratio [2]
1 | C=C1C[C@H]1CC(=O)SCCNC(=O)CCNC(=O)[C@H](O)C(C)(C)COP(=O)(O)OP(=O)(O)OC[C@H]1O[C@@H](n2cnc3c(N)ncnc32)[C@H](O)[C@@H]1OP(=O)(O)O | 0.0163 s⁻¹ | 4
2 | C=C1C[C@@H]1CC(=O)SCCNC(=O)CCNC(=O)[C@H](O)C(C)(C)COP(=O)(O)OP(=O)(O)OC[C@H]1O[C@@H](n2cnc3c(N)ncnc32)[C@H](O)[C@@H]1OP(=O)(O)O | 0.0173 s⁻¹ | 3.4
